Assays:
[1] = molecular target: human dipeptidylpeptidase 7 (hDPP7) (Homo sapiens (Human), UniProt Q9UHL4); assay: hDPP7 inhibition assay; assay type: biochemical; details: highest compound concentration 10 μM; n = 1
Experimental: Compounds were tested in a biochemical inhibition assay using human dipeptidylpeptidase 7 (hDPP7) enzyme (BPS Bioscience, #80070) and the substrate Ala-Pro-amino-methylcoumarin (BPS Bioscience, #80305) at 10 μM FAC. The enzymatic reactions were conducted in duplicate at rt for 20 min in 50 μL assay buffer (10 mM Tris-HCl, pH 7.4, 10 mM MgCl2, 1 mM MnCl2). Compound solutions (in DMSO) at 10 CR, 3-fold dilution series were prepared in assay buffer ten-fold higher than the final concentration, and 5 μL of the dilution was added to a 50 μL reaction so that the highest compound concentration was 10 μM FAC and the concentration of DMSO was 1% in all wells. The plates were read on a PHERAstarPLUS (BMG) using kinetic mode with excitation 340 nm and emission 460 nm. Data were analyzed in Graph Pad Prism. Raw data signals were normalized using 1% DMSO as 0% control and no enzyme as 100% inhibitor control.

[2] = molecular target: human dipeptidylpeptidase 9 (hDPP9) (Homo sapiens (Human), UniProt Q86TI2); assay: hDPP9 inhibition assay; assay type: biochemical; details: highest compound concentration 10 μM; n = 1
Sequence of human dipeptidylpeptidase 9 (hDPP9) (Q86TI2 whole entry): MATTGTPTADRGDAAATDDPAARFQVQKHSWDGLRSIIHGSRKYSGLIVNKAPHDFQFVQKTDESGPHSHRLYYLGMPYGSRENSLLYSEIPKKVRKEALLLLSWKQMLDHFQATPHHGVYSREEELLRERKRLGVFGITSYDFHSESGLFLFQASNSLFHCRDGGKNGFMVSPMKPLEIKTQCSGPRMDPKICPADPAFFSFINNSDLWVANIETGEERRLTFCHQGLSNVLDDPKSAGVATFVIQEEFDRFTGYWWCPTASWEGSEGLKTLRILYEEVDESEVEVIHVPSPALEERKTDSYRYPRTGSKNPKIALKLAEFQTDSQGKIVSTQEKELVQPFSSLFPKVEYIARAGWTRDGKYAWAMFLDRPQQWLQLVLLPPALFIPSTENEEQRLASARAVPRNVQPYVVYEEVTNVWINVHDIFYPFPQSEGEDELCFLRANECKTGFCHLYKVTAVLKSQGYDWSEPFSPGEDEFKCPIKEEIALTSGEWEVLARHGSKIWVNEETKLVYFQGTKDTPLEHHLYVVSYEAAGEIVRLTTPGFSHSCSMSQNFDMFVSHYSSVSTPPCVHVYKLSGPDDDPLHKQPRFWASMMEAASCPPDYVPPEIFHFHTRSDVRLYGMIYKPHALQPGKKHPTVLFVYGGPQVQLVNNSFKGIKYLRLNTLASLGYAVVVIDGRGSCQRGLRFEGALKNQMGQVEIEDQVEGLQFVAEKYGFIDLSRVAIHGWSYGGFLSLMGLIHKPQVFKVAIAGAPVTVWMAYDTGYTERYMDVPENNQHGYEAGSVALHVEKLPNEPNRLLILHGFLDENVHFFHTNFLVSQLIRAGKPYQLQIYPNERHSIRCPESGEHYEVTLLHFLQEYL
Experimental: Compounds were tested in a biochemical inhibition assay using human dipeptidylpeptidase 9 (hDPP9) enzyme (R&D, #5419-SE-010) and the substrate Gly-Pro-amino-methylcoumarin (Enzo #BML-P189-0005) at 10 μM FAC. The enzymatic reactions were conducted in duplicate at rt for 30 min in 50 μL assay buffer (50 mM Tris, pH 7.5, 0.1% BSA). Compound solutions (in DMSO) at 10 CR, 3-fold dilution series were prepared in assay buffer ten-fold higher than the final concentration, and 5 μL of the dilution was added to a 50 μL reaction so that the highest compound concentration was 10 μM FAC and the concentration of DMSO was 1% in all wells. The plates were read on a PHERAstarPLUS (BMG) using kinetic mode with excitation 340 nm and emission 460 nm. Data were analyzed in Graph Pad Prism. […] Raw data signals were normalized using 1% DMSO as 0% control and no enzyme as 100% inhibitor control.

[3] = molecular target: FAP enzyme activity in mouse plasma (Mus musculus (Mouse), UniProt P97321); assay: FAP target engagement enzyme activity in mouse plasma after oral dosing; details: male C57Bl/6 mice, single oral dose 3 or 10 mg/kg; estimated from plasma exposure vs FAP activity, Imax fixed to 1; read-out: In vivo Mouse IC50
Sequence of FAP enzyme activity in mouse plasma (P97321 24-761 limits assumed): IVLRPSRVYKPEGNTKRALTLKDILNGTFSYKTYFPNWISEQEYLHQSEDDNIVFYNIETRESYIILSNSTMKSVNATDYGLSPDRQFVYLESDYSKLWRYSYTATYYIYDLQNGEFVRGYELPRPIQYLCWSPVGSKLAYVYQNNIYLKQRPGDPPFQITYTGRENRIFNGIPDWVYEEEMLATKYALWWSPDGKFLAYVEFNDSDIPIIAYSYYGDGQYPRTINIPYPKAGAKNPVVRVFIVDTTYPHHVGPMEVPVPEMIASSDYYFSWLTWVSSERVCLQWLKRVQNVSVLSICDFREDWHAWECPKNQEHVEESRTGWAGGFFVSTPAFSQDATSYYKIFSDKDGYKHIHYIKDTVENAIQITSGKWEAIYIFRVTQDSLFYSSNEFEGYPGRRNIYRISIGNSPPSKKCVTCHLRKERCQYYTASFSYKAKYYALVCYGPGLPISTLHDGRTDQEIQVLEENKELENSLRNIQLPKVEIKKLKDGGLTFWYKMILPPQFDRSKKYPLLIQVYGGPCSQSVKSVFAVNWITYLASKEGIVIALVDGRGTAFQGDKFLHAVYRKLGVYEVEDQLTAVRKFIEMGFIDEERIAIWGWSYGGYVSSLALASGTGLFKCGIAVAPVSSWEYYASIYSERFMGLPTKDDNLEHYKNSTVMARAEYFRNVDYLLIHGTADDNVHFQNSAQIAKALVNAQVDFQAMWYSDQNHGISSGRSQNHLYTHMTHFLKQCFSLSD
Experimental: The effect of test compound on FAP enzyme activity in mouse plasma was evaluated in an enzymatic assay using the Fibroblast Activation Protein alpha (FAP) specific fluorogenic substrate dipeptide-Coumarin, Ala-Pro-AMC, (ARI-3144). In this assay, FAP cleaves Ala-Pro-AMC to release free AMC which is measured as a fluorescent signal that correlates with enzyme activity.
Male C57Bl/6 mice (Charles River, Germany), 8 weeks of age, were single housed in a temperature-controlled room with a 12-hour light/dark cycle (06:00-18:00 light). The mice had ad libitum access to water and rodent chow diet (R70, Lactamin, Kimstad, Sweden), and were acclimated for 5 days upon arrival. After acclimation, all mice received a single oral dose of test compound (3 or 10 mg/kg). Blood samples for whole blood compound exposure measurements were taken at 0.25, 0.5, 1, 2, 4, 8 and 24 h post oral dosing. Samples were collected in EDTA capillary tubes (20 μL, K2E, REF 19.447) and were transferred to a 96-deep well plate (NUNC, Thermo Discher Scientific) and stored at −20° C. until further analyses were performed. […]
Recombinant human FAP (PB-17-1837, construct PL-17-0278, cd33-FAP (27-757)-6His, Mw85926 Da) was used as a standard for this assay. […] The plates were read on a Beckman Paradigm reader with excitation 360 nm and emission 465 nm. Fluorescence measurements were performed with kinetic read every 5 minutes for 60 min at room temperature. Data were analyzed in Excel (IDBS XLfit Add-In) using a Linear Regression (y=k*x+m) model to prepare a human recombinant FAP standard curve.
On the day of the assay, plasma was diluted (1:2) to 20 μL volume in buffer (PBS, 0.1% BSA) and 7.5 μL was transferred to the assay plate (384-well black, fluotrack PS, Greiner 781076). […] The plates were read on a Beckman Paradigm reader with excitation 360 nm and emission 465 nm. Fluorescence measurements were performed with kinetic read every 5 minutes for 60 minutes at room temperature. As noted above, FAP cleaves Ala-Pro-AMC to release free AMC which is measured as a fluorescent signal. […]

hFAP (M39-A757) = hFAP (M39-A757) (Homo sapiens (Human), UniProt Q12884)
Sequence of hFAP (M39-A757) (Q12884 39-757): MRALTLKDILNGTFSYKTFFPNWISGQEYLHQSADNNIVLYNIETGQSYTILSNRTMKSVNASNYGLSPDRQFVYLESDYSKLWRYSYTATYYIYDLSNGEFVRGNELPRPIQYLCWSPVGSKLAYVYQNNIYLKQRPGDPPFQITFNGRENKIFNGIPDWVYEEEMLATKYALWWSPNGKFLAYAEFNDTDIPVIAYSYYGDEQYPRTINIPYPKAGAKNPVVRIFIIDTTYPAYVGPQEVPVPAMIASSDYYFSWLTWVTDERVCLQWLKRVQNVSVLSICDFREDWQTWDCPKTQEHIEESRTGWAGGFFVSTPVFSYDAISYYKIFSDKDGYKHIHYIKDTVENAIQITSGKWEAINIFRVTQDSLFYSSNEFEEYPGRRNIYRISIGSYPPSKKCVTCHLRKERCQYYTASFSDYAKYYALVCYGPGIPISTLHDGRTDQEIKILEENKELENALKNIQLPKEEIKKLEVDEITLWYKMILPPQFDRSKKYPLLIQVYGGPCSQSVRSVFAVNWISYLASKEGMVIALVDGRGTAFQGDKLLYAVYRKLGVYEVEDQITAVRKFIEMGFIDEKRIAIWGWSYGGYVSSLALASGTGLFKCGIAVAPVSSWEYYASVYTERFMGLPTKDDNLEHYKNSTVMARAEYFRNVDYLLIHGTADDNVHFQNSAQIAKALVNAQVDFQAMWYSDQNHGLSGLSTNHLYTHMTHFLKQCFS
Experimental: Compounds were tested in a direct binding assay using 8K surface plasmon resonance biosensor (GE Healthcare) at 20° C. Immobilization of hFAP (M39-A757) on a CMD200M sensor chip (Xantec) was performed using standard amine coupling procedure in immobilization buffer (10 mM HEPES, 150 mM NaCl, 0.05% Tween20, pH 7.4). The surface was washed with 10 mM NaOH, 1M NaCl before being activated with EDC/NHS (GE Healthcare), followed by immobilization of hFAP (in 10 mM Acetate pH 5.0). Finally, the surface was deactivated by ethanolamine. Immobilization levels of hFAP were around 4000-6000 RU. The reference spot was treated as described, omitting the injection of hFAP. Compound concentration series were injected over the immobilized protein in increasing concentrations (2-500 nM) using single cycle kinetics in running buffer (20 mM TRIS, 150 mM NaCl, 0.05% Tween20, 1% DMSO, pH 7.4). Interaction models were fitted globally to the experimental traces, enabling determination of kon, koff and Kd.

| IC50 [1] [nM] | IC50 [2] [nM] | IC50 [3] [nM] | Kd (hFAP (M39-A757)) [nM] | Compound |
| --- | --- | --- | --- | --- |
| > 10 | > 10 | 3 |  | Cc1ccc2c(C(=O)NCC(=O)N3[C@H](C#N)C[C@@H]4C[C@@H]43)ccnc2c1 [Example 20, N-(2-((1S,3S,5S)-3-Cyano-2-azabicyclo[3.1.0]hexan-2-yl)-2-oxoethyl)-7-methylquinoline-4-carboxamide] |
|  |  | 36 | 5.5 | N#C[C@@H]1C[C@@H]2C[C@@H]2N1C(=O)CNC(=O)c1ccnc2cc(C3(C#N)CC3)ccc12 [Example 40, N-(2-((1S,3S,5S)-3-Cyano-2-azabicyclo[3.1.0]hexan-2-yl)-2-oxoethyl)-7-(1-cyanocyclopropyl)quinoline-4-carboxamide] |

From patent US20230406840A1, “N-(2-(3-CYANO-2-AZABICYCLO[3.1.0]HEXAN-2-YL)-2-OXOETHYL)QUINOLINE-4-CARBOXAMIDES” (AstraZeneca AB, priority 2022, published 2023)
